Source: patent US8895069B2, “Drug delivery system using hyaluronic acid-peptide conjugate micelle” (Postech Academy-Industry Foundation, priority 2011, dated 2014)
Ends that are not written are not given here.

What was measured:
retinal blood vessel = experiment: Electron microscopy of retinal blood vessel in diabetic retinopathy; type: in vivo, Sprague Dawley (SD) male rats; settings: diabetic retinopathy rats
lung inflammation = experiment: Bronchoalveolar lavage (BAL) cellularity in OVA/LPS asthma model; type: in vivo, BALB/c mice; settings: intranasal
Description: As the laboratory mouse, BALB/c mice (female, 6 week old, 5 per each group) were used. Five groups consisted of a normal control group (PBS-PBS: wherein asthma was not induced and the mice were treated with PBS), a negative control group (OVA/LPS10-OVA: wherein asthma was induced by using OVA and LPS, and the mice were treated with PBS only), a hyaluronic acid test group, an anti-Flt1 peptide (GGNQWFI) (SEQ ID NO: 3) test group, and a test group of the hyaluronic acid-peptide conjugate obtained from Preparation Example 3. The dose of the hyaluronic acid-peptide conjugate was changed between 10 […].
First, in order to make a mouse asthma model, each mouse was sensitized by intranasal administration of 75 μg of ovalbumin (OVA) (Calbiochem, La Jolla, Calif.) and 10 μg of lipopolysaccharide (LPS) (Calbiochem, La Jolla, Calif.) on 0 day, the first day, the second day, and the 7th day. Then, OVA (50 ug/head), hyaluronic acid (500 μg/head), anti-Flt1 peptide (GGNQWFI) (SEQ ID NO: 3) (10, 30, 100, 300, 1000 μg/head), and the hyaluronic acid-peptide conjugate with a low peptide content prepared from Preparation Example 3 ([…], based on the peptide content) were intranasally administered, respectively, after 14 days, 15 days, 21 days, 22 days to challenge. […]

Substance | structure of the retinal blood vessel (electron microscope) (retinal blood vessel) | bronchoalveolar lavage (BAL) cellularity (lung inflammation; 1000 μg/head) | bronchoalveolar lavage (BAL) cellularity, dose dependence (lung inflammation; 10-1000 per head based on peptide content)
GGNQWFI [anti-Flt1 peptide, GGNQWFI] | the blood vessel had a rounded shape although the endothelial cell layer was thin | – | –
HA-GGNQWFI: hyaluronic acid (MW 100 kDa) conjugated with GGNQWFI, 20 peptides per one molecule of HA-TBA (also: conjugated to hyaluronic acid, about 20 peptides per HA) | – | less than half of the cellularity in the negative control group | sharply decreased and was found to be dose-dependent
